Source: PMC11442134, “The phytopathogen Xanthomonas campestris senses and effluxes salicylic acid via a sensor HepR and an RND family efflux pump to promote virulence in host plants” (mLife, 2024)

Legend:
[1] = target: T1, HepR (Xanthomonas campestris, UniProt Q8P3A9); assay: ITC with purified His-HepR (Kd […]); confirmed by SPR (Kd […]); SA inhibits HepR–Phep binding in EMSA
T1 construct: gene slyA; 147-amino acid protein, His-tagged HepR (pET28a), dimer

[2] = target: HepR (MarR family transcription factor, Xcc4167) (Xanthomonas campestris pv. campestris (strain XC1)); assay: SEC; FPLC gel filtration of Ni-NTA purified His-tagged HepR on Superdex 75; 25 mM HEPES, 150 mM NaCl, pH 7.4

Molecule | Kd [1] | stoichiometry N [2]
O=C(O)c1ccccc1O [SA, Salicylic acid] | 19.3 µM | –
HepR (MarR family transcription factor, Xcc4167) (natural protein) | – | 2
